Reference: US20110015065A1 (priority 2008, published 2011)

How the values were obtained:
Pyricularia oryzae = type: cell-based; conditions: 10 days after inoculation
Phakopsora pachyrhizi = assay: Curative control of soybean rust on soy beans caused by Phakopsora pachyrhizi (glasshouse); type: in vivo; conditions: comparative trial (Use example 7), untreated 100
Description: The active compounds were formulated separately or together as a stock solution comprising 25 mg of active compound which was made up to 10 ml using a mixture of acetone and/or dimethyl sulfoxide (DMSO) and the emulsifier Wettol EM 31 (wetting agent having emulsifying and dispersing action based on ethoxylated alkylphenols) in a volume ratio of solvent/emulsifier of 99 to 1. This solution was then made up to 100 ml using water. This stock solution was diluted with the solvent/emulsifier/water mixture described to the active compound concentration given below.
Leaves of pot-grown soybean seedlings were inoculated with spores of Phakopsora pachyrhizi. To ensure the success of the artificial inoculation, the plants were transferred to a humid chamber with a relative humidity of about 95% and 23 to 27° C. for 24 h. The next day the plants were sprayed to run-off with an aqueous suspension, containing the concentration of active ingredient or their mixture as described below. The plants were allowed to air-dry. Then the trial plants were cultivated for 14 days in a greenhouse chamber at 23-27° C. and a relative humidity between 60 and 80%. The extent of fungal attack on the leaves was visually assessed as % diseased leaf area.
The spray solutions were prepared as described for “Examples of the action against harmful fungi” (II. B).
The trial was conducted as described for Use example 3.

SMILES	Growth (%) at 31 ppm (Pyricularia oryzae) [%]	Disease level (%) at 250 ppm (Phakopsora pachyrhizi) [%]	Growth (%) at 2 ppm (Pyricularia oryzae) [%]
Cc1cnccc1CNS(=O)(=O)c1ccc(-c2ccc(Cl)cc2Cl)cc1	30		
COc1cc(CNS(=O)(=O)c2ccc(-c3ccc(C(F)(F)F)cc3C(F)(F)F)cc2)ccn1		100	
COc1cc(CNS(=O)(=O)c2ccc(-c3ccc(C(F)(F)F)cc3C(F)(F)F)cc2)sn1 [I-2]		5	
COc1cc(CNS(=O)(=O)c2ccc(-c3ccc(Cl)cc3Cl)cc2)sn1 [I-3]			46
Cn1nccc1CNS(=O)(=O)c1ccc(-c2ccc(Cl)cc2Cl)cc1 [I-46]	16		
COc1cc(CNS(=O)(=O)c2ccc(-c3ccc(Cl)cc3Cl)cc2)ccn1 [Table C) I-76 according to WO06/097489]			68
